ChEMBL document CHEMBL3351468, “Tritium-labelled isovaleryl-RYYRIK-NH2 as potential antagonist probe for ORL1 nociceptin receptor” (Bioorg Med Chem, 2014)

Assays:
[1] = biological target: T1, Nociceptin receptor (Homo sapiens, UniProt P41146); assay: Partial agonist activity at human ORL1 receptor expressed in African green monkey COS7 cells after 90 mins by topcount analysis; assay type: cell-based; settings: COS-7
[2] = biological target: T1, Nociceptin receptor; assay: Displacement of [3H]]nociceptin from human ORL1 receptor low affinity binding site expressed in African green monkey COS7 cells after 90 mins by topcount analysis
[3] = biological target: T1, Nociceptin receptor; assay: Displacement of [3H]isoVa-RYYRIK-NH2 from human ORL1 receptor expressed in African green monkey COS7 cells after 90 mins by topcount analysis; assay type: cell-based, COS-7
[4] = biological target: T1, Nociceptin receptor; assay: Displacement of [3H]]nociceptin from human ORL1 receptor high affinity binding site expressed in African green monkey COS7 cells after 90 mins by topcount analysis
[5] = biological target: T1, Nociceptin receptor; assay: Displacement of [3H]]nociceptin from human ORL1 receptor expressed in African green monkey COS7 cells after 90 mins by topcount analysis; assay type: cell-based, COS-7
[6] = biological target: T1, Nociceptin receptor; assay: Binding affinity to human ORL1 receptor expressed in African green monkey COS7 cells assessed per mg protein after 90 mins by Scatchard plot analysis; assay type: cell-based, COS-7

T1 sequence (P41146 whole entry): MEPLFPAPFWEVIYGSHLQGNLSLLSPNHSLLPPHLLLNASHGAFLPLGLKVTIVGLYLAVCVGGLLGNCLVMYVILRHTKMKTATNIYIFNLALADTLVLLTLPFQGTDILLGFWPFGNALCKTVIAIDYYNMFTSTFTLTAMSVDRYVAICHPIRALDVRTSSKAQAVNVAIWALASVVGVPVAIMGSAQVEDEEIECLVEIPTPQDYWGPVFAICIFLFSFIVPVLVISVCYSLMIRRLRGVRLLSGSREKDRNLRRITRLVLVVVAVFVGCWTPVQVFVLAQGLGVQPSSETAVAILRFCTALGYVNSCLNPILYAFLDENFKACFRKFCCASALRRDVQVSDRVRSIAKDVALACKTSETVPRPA

In the case of CC[C@H](C)[C@H](NC(=O)[C@H](CCCN=C(N)N)NC(=O)[C@H](Cc1ccc(O)cc1)NC(=O)[C@H](Cc1ccc(O)cc1)NC(=O)[C@H](CCCN=C(N)N)NC(C)=O)C(=O)N[C@@H](CCCCN)C(N)=O, the Activity [1] is reported as 60%.

Work on CC[C@H](C)[C@H](NC(=O)[C@H](CCCNC(=N)N)NC(=O)[C@H](Cc1ccc(O)cc1)NC(=O)[C@H](Cc1ccc(O)cc1)NC(=O)[C@H](CCCNC(=N)N)NC(=O)CC(C)C)C(=O)N[C@@H](CCCCN)C(N)=O yielded an Activity [1] of 0%, an IC50 [2] of 8.51 nM and an IC50 [3] of 2.15 nM. It also gave an IC50 [4] of 0.033 nM.

CCC(=O)N[C@@H](CCCNC(=N)N)C(=O)N[C@@H](Cc1ccc(O)cc1)C(=O)N[C@@H](Cc1ccc(O)cc1)C(=O)N[C@@H](CCCNC(=N)N)C(=O)N[C@H](C(=O)N[C@@H](CCCCN)C(N)=O)[C@@H](C)CC gave an Activity [1] of 46% and an IC50 [5] of 1.39 nM.

In the case of CC[C@H](C)[C@H](NC(=O)[C@H](CCCNC(=N)N)NC(=O)[C@H](Cc1ccc(O)cc1)NC(=O)[C@H](Cc1ccc(O)cc1)NC(=O)[C@H](CCCNC(=N)N)NC(=O)C(C)C)C(=O)N[C@@H](CCCCN)C(N)=O, the Activity [1] is reported as 14%, the IC50 [2] is reported as 1.67 nM and the IC50 [4] is reported as 0.059 nM.

With [3H]C(C(=O)N[C@@H](CCCNC(=N)N)C(=O)N[C@@H](Cc1ccc(O)cc1)C(=O)N[C@@H](Cc1ccc(O)cc1)C(=O)N[C@@H](CCCNC(=N)N)C(=O)N[C@H](C(=O)N[C@@H](CCCCN)C(N)=O)[C@@H](C)CC)C([3H])(C)C (stereo partly specified) the Kd [6] was 1.21 nM.
